The results in this text go back to patent EP0012729A1, “Therapeutic compositions containing as active compound a substituted acetic acid or its salt” ("IBIS" ISTITUTO BIOCHIMICO SPERIMENTALE S.p.A., priority 1978, dated 1980).

The subject of the assay is Wistar rats. Briefly: Choleretic activity in the rat, bile fistula method. It is filed as in vivo. Conditions: for Peak choleresis time of appearance / Peak choleresis % increase / Duration index: 200 mg/kg p.o. (dose given for 1620 only); for Peak choleresis % increase: increase over controls as percentage of base choleresis; for Duration index: time for halving the maximum choleresis increase; for Flow: 200 mg/kg p.o.; for ml of bile flow ± s.e.: second series. An excerpt: It is known that the primary effect of a choleretic agent is to increase the bile flow and the quantity of solid substances excreted with the bile. A good choleretic must provide this effect in a sufficiently intense and prolonged manner. In addition, as in the case of all drugs, it must have low acute toxicity and good general tolerability, but in particular must be free from toxic effects on the organ on which it is required to act, i.e. the liver, whether this is in a normal or pathological state. The analysis of the new product in comparison with the best known products for the same therapeutic use has therefore been focused on these aspects. The choleretic activity of the new product has been determined in the rat by using the bile fistula method. Wistar rats of both sexes and having a weight of between 180 and 240 g were used.
The animals, which were kept fasting for 12 hours but with free access to water, were narcotised by ethyl urethane in a dose of 1 g/kg by intra peritoneal or intramuscular injection.
After binding the animals to the retention bed, a median laparatomy was carried out, and when the bile duct had been isolated a cannula needle was inserted into it. A polythene tube was then inserted into those ani mals which were to receive the products intraduodenally, after which a su ture was carried out on the abdominal wall, and the bile was allowed to discharge for 30 minutes after inserting the cannula in the bile duct, so as to allow the discharge to become normal. The bile was then collec ted for one hour.
Having determined the volume of bile discharged during this first hour of collection (base volume), the products under examination were administered at the predetermined doses and by the predetermined methods. The bile excreted by the individual animals was then collected over each hour for a further six hours.
During the experiments, the animals were kept at ambient temperature of about 22°C, and at regular intervals of two hours received 10 ml/kg of physiological solution s.c.
The liquids were administered at a temperature of 37°C.
The bile flow and cholesterol excretion were determined on those bile fractions excreted by the animals over each hour starting from the base hour until the end of the experiment
The dry residue (R.So) was determined on the bile fraction excreted during the base hour and on the total bile fractions excreted during the sub sequent hours. For practical reasons, the determination of the dry residue and of the cholesterol (carried out by the Sperry & Webb method) were carried out on the pool of bile excreted by the entire group of animals subjected to the same treatment instead of on the bile fractions excreted by the individual animals (which was sometimes insufficient for determining the cholesterol).
In compiling the graphs, the differences between the choleresis in the treated animals and that in the controls was calculated over the considered time intervals, and expressed as a percentage of the base choleresis. For this calculation, the following formula was used: [formula] where Cn and C' represent the choleresis (in ml/kg/h for the bile flow, and in mg/kg/h for the dry residue) determined over the considered time interval for the group of treated animals and the group of controls respectively. Cb and C'b represent the base choleresis in the group of treated animals and group of controls respectively.
This index was calculated as the time for halving the maximum choleresis increase recorded under their effect.

With `CCC(C(=O)O)C1(O)CCC(c2ccccc2)CC1` (stereo not drawn) [α-(1-hydroxy--4-phenylcyclohexyl)butyric acid], the “Peak choleresis time of appearance” value came out at 1st hour, the “Peak choleresis % increase” value is given as 105% and the Duration index is 180'. The Flow (0 (base hour)) is reported as 2,70±0,25 ml/kg/h. Also, the Flow (1h) is on record as 5,60±0,51 ml/kg/h. For the same compound, where the note is “2h”, the Flow is given as 5,42±0,47 ml/kg/h. Besides, the Flow (3h) was 4,63±0,28 ml/kg/h. Further, the Flow (4h) is 3,68±0,18 ml/kg/h. Moreover, the Flow (5h) is 3,05±0,12 ml/kg/h. Moreover, the Flow (6h) is 2,70±0,17 ml/kg/h. Besides, under “oral by gastric probe 50 mg/kg, 0 (base values)”, the “ml of bile flow ± s.e.” value was 2,8±0,22 ml. For the same compound, the “ml of bile flow ± s.e.” value (oral by gastric probe 50 mg/kg, 1 h) is 3,2±0,11 ml. The “ml of bile flow ± s.e.” value (oral by gastric probe 50 mg/kg, 2 h) is recorded as 3,0±0,12 ml. For the same compound, the “ml of bile flow ± s.e.” value (oral by gastric probe 50 mg/kg, 3 h) is on record as 2,9±0,10 ml. Moreover, the “ml of bile flow ± s.e.” value (oral by gastric probe 50 mg/kg, 4 h) is recorded as 2,8±0,12 ml. Besides, under “oral by gastric probe 50 mg/kg, 5 h”, the “ml of bile flow ± s.e.” value is 2,5±0,10 ml. Also, the “ml of bile flow ± s.e.” value (oral by gastric probe 50 mg/kg, 6 h) is given as 2,0±0,11 ml. In addition, the “ml of bile flow ± s.e.” value (oral by gastric probe 100 mg/kg, 0 (base values)) is 2,6±0,17 ml. Also, for the setting “oral by gastric probe 100 mg/kg, 1 h”, the “ml of bile flow ± s.e.” value is given as 3,7±0,13 ml. The “ml of bile flow ± s.e.” value (oral by gastric probe 100 mg/kg, 2 h) is listed as 3,6±0,14 ml. Moreover, the “ml of bile flow ± s.e.” value (oral by gastric probe 100 mg/kg, 3 h) was 3,4±0,11 ml. Further, the “ml of bile flow ± s.e.” value (oral by gastric probe 100 mg/kg, 4 h) is listed as 3,0±0,11 ml. The “ml of bile flow ± s.e.” value (oral by gastric probe 100 mg/kg, 5 h) is on record as 2,9±0,13 ml. The “ml of bile flow ± s.e.” value (oral by gastric probe 100 mg/kg, 6 h) is 2,1±0,13 ml.
“dihydroxybutylether [Dihydroxydibutyl-ether]”: the “Peak choleresis time of appearance” value turned out to be 1st hour, the “Peak choleresis % increase” value is on record as 49% and the Duration index is 45'. In addition, the Flow (0 (base hour)) is listed as 3,36±0,19 ml/kg/h. Moreover, the Flow (1h) is reported as 5,10±0,23 ml/kg/h. In addition, the Flow (2h) is listed as 3,79±0,18 ml/kg/h. The Flow (3h) is 3,08±0,15 ml/kg/h. Moreover, the Flow (4h) is listed as 2,68±0,15 ml/kg/h. The Flow (5h) is listed as 1,97±0,05 ml/kg/h. The Flow (6h) was 1,77±0,11 ml/kg/h.
